In patent publication US6831199B1, “Pyrimidine compounds and derivatives thereof” (G. D. Searle & Co., priority 1995, dated 2004):
Where a name gives a salt, the structure may show the parent alone.

What was measured:
[1] = target: T1, Human fibrinogen receptor (αIIbβ3) (Homo sapiens, UniProt P05106+P08514); experiment: Purified IIb/IIIa receptor assay (solid phase receptor assay, competition with biotinylated vitronectin); type: binding; conditions: read-out: IIb/IIIa IC50
T1 construct: Human fibrinogen receptor (αIIbβ3) was purified from outdated platelets; from tissue; host or cells: outdated human platelets
Procedure: PURIFIED IIb/IIIa RECEPTOR ASSAY
Human fibrinogen receptor (αIIbβ3) was purified from outdated platelets. […] Biotinylated human vitronectin was prepared by coupling NHS-biotin from Pierce Chemical Company (Rockford, Ill.) to purified vitronectin as previously described. […] Anti-biotin antibody was obtained from Calbiochem (La Jolla, Calif.). Linbro microtiter plates were obtained from Flow Labs (McLean, Va.). ADP reagent was obtained from Sigma (St. Louis, Mo.).
(§1) Solid Phase Receptor Assays
(§2) The purified human fibrinogen receptor (αIIbβ3) was diluted from stock solutions to 1.0 μg/mL in Tris-buffered saline containing 1.0 mM Ca^++, Mg^++, and Mn^++, pH 7.4 (TBS^+++). The diluted receptor was immediately transferred to Linbro microtiter plates at 100 μL/well (100 ng receptor/well). The plates were sealed and incubated overnight at 4° C. to allow the receptor to bind to the wells. All remaining steps were at room temperature. The assay plates were emptied and 200 μL of 1% RIA grade BSA in TBS^+++ (TBS^+++/BSA) were added to block exposed plastic surfaces. Following a 2 hour incubation, the assay plates were washed with TBS^+++ using a 96 well plate washer. Logarithmic serial dilution of the test compound and controls were made starting at a stock concentration of 2 mM and using 2 nM biotinylated vitronectin in TBS^+++/BSA as the diluent. This premixing of labeled ligand with test (or control) ligand, and subsequent transfer of 50 μL aliquots to the assay plate was carried out with a CETUS Propette robot; the final concentration of the labeled ligand was 1 nM and the highest concentration of test compound was 1.0×10^−4 M. The competition occurred for two hours after which all wells were washed with a plate washer as before. Affinity purified horseradish peroxidase labeled goat anti-biotin antibody was diluted 1:3000 in TBS^+++/BSA and 125 μL were added to each well. After 30 minutes, the plates were washed and incubated with ODD/H2O2 substrate in 100 mM/L citrate buffer, pH 5.0. The plate was read with a microtiter plate reader at a wavelength of 450 nm and when the maximum-binding control wells reached an absorbance of about 1.0, the final A450 were recorded for analysis. The data were analyzed using a macro written for use with the EXCEL™ spreadsheet program. The mean, standard deviation, and % CV were determined for duplicate concentrations. The mean A450 values were normalized to the mean of four maximum-binding controls (no competitor added)(B-MAX). The normalized values were subjected to a four parameter curve fit algorithm, [Robard et al., Int.

[2] = target: T2, Human vitronectin receptor (αvβ3) (Homo sapiens, UniProt P05106+P06756); experiment: Vitronectin adhesion assay (solid phase receptor assay, competition with biotinylated vitronectin); type: binding; conditions: read-out: AvB3 IC50
T2 construct: Human vitronectin receptor (αvβ3) was purified from human placenta; from tissue; host or cells: human placenta
Procedure: VITRONECTIN ADHESION ASSAY
Assay buffer, OPD substrate tablets, and RIA grade BSA were obtained from Sigma (St. Louis, Mo.). Anti-biotin antibody was obtained from Calbiochem (La Jolla, Calif.). Linbro microtiter plates were obtained from Flow Labs (McLean, Va.). ADP reagent was obtained from Sigma (St. Louis, Mo.).
as §1
as §2, with “vitronectin” for “fibrinogen”, “(αvβ3)” for “(αIIbβ3)”, “TBS^+++(TBS^+++/BSA)” for “TBS^+++ (TBS^+++/BSA)”, “OPD/H2O2” for “ODD/H2O2”, “Citrate” for “citrate”, “algorithm [Rodbard” for “algorithm, [Robard”

| SMILES | IC50 [1] | IC50 [2] |
| --- | --- | --- |
| COc1ccc(Br)cc1C(CC(=O)O)NC(=O)CNC(=O)c1cccc(NC(=N)N)c1 (stereo not drawn) [Example 257, β-[[2-[[[3-[(aminoiminomethyl)amino]phenyl]carbonyl]amino]acetyl]amino]-5-bromo-2-methoxybenzenepropanoic acid, trifluoroacetate salt] | 4660 nM | 49.2 nM |
| N=C(N)Nc1cccc(C(=O)NCC(=O)NC(CC(=O)O)c2cccc(Br)c2)c1 (racemic) [Example 185, (±)β-[[2-[[[3-[(aminoiminomethyl)amino]phenyl]carbonyl]amino]acetyl]amino]-3-bromobenzenepropanoic acid, trifluoroacetate salt] | 166 nM | 1.47 nM |
| N=C(N)Nc1cccc(C(=O)NCC(=O)NC(CC(=O)O)c2cc(Br)c(O)c(Br)c2)c1 (stereo not drawn) [Example 276, β-[[2-[[[3-[(aminoiminomethyl)amino]phenyl)carbonyl]amino]acetyl]amino]-3,5-dibromo-4-hydroxybenzenepropanoic acid, trifluoroacetate salt] | 111 nM | 1.25 nM |
| CCOC(=O)CC(NC(=O)CNC(=O)c1cccc(NC(N)=S)c1)c1cccnc1 (stereo not drawn) [Example 113, ethyl β-[[2-[[[3-[(aminothioxomethyl)amino]phenyl]carbonyl]amino]acetyl]amino]pyridine-3-propanoate, trifluoroacetate salt] | ≥ 100000 nM | 276 nM |
| O=C(O)CC(NC(=O)CNC(=O)c1cccc(NC2=NCCCS2)c1)c1cccnc1 (stereo not drawn) [Example 278, β-[[2-[[[3-[(5,6-dihydro-4H-thiazin-2-yl)amino]phenyl]carbonyl]amino]acetyl]amino]pyridine-3-propanoic acid, bis(trifluoroacetate)salt] | 150 nM | 0.45 nM |
| CCOC(=O)CC(NC(=O)CNC(=O)c1cccc(N/C(=N\C#N)NCc2cccnc2)c1)c1ccccc1 (stereo not drawn) [Example 145, ethyl β-[[2-[[[3-[[(cyanoimino)[3-pyridinylmethyl)amino]methyl]amino]phenyl]carbonyl]amino]acetyl]amino]benzenepropanoate, trifluoroacetate salt] | > 100000 nM | 2720 nM |
| O=C(O)CC(NC(=O)CNC(=O)c1cccc(NC2=NCCS2)c1)c1cccnc1 (stereo not drawn) [Example 101, β-[[2-[[[3-[(4,5-dihydrothiazol-2-yl)amino]phenyl]carbonyl]amino]acetyl]amino]pyridine-3-propanoic acid, trifluoroacetate salt] | 65700 nM | 1680 nM |
| N=C(N)Nc1cccc(C(=O)NCC(=O)NC(CC(=O)O)CC(=O)Nc2cc(Cl)cc(Cl)c2)c1 (stereo not drawn) [Example 288, 3-[[2-[[[3-[(aminoiminomethyl)amino]phenyl]carbonyl]amino]acetyl]amino)-5-[(3,5-dichlorophenyl)amino]-5-oxopentanoic acid, trifluoroacetate salt] | 1060 nM | 8.62 nM |
| O=C(O)CC(NC(=O)CNC(=O)c1cccc(NC(=O)NCc2ccccc2)c1)c1cc(Cl)cc(Cl)c1 (stereo not drawn) [Example 269, 3,5-dichloro-β-[[2-[[[3-[[[(phenylmethyl)amino]carbonyl]amino]phenyl]carbonyl]amino]acetyl]amino]benzenepropanoic acid, monohydrate] | 25400 nM | 209 nM |
| N=C(N)Nc1cccc(C(=O)NCC(=O)NC(CC(=O)O)c2ccc3c(c2)Cc2ccccc2-3)c1 (racemic) [Example 224, (±)β-[[2-[[[3-[(aminoiminomethyl)amino]phenyl]carbonyl]amino]acetyl]amino]-9H-fluorene-2-propanoic acid, trifluoroacetate salt] | 25.9 nM | 0.71 nM |
| N=C(N)Nc1cccc(C(=O)NCC(=O)NC(CC(=O)O)c2cc(Br)cc(I)c2)c1 (racemic) [Example 219, (±)β-[[2-[[[3-[(aminoiminomethyl)amino]phenyl]carbonyl]amino]acetyl]amino]-3-bromo-5-iodobenzenepropanoic acid trifluoroacetate salt] | 253 nM | 2.29 nM |
| N=C(N)Nc1cccc(C(=O)NCC(=O)NC(CC(=O)O)c2cc(Cl)cc(Cl)c2Cl)c1 (stereo not drawn) [Example 254, β-[[2-[[[3-[(aminoiminomethyl)amino]phenyl]carbonyl]amino]acetyl]amino]-2,3,5-trichlorobenzenepropanoic acid, trifluoroacetate salt] | 6910 nM | 16.5 nM |

Further compounds by falling IC50 [1], results first:

| IC50 [1] | IC50 [2] | SMILES |
| --- | --- | --- |
| 78900 nM | 74.8 nM | O=C(CNC(=O)c1cccc(NC2=NCCCN2)c1)NC(CC(=O)OCCOCCOCCOCCO)c1cc(Cl)cc(Cl)c1 (racemic) [Example 217, (±)[2-[2-[2-(2-hydroxyethoxy)ethoxy]ethoxy]ethyl]3,5-dichloro-β-[[2-[[[3-[(1,4,5,6-tetrahydropyrimidin-2-yl)amino]phenyl]carbonyl]amino]acetyl]amino]benzenepropanoate, trifluoroacetate salt] |
| 45900 nM | 13000 nM | CCOC(=O)/N=C(/NC(=O)OCC)Nc1cccc(C(=O)NCC(=O)NC(CC(=O)O)c2cc(Cl)cc(Cl)c2)c1 (stereo not drawn) [Example 166, 3,5-dichloro-β-[[2-[[[3-[[[(ethoxycarbonyl)amino][(ethoxycarbonyl)imino]methyl]amino]phenyl]carbonyl]amino]acetyl]amino]benzenepropanoic acid] |
| 8090 nM | 413 nM | O=C(O)CC(NC(=O)CNC(=O)c1cccc(Nc2nc3ccccc3o2)c1)c1cccnc1 (stereo not drawn) [Example 286, β-[[2-[[[3-[[benzoxazol-2-yl)amino]phenyl]carbonyl]amino]acetyl]amino]pyridine-3-propanoic acid, trifluoroacetate salt] |
| 4560 nM | 144 nM | CCN/C(=N\C)Nc1cccc(C(=O)NCC(=O)NC(CC(=O)O)c2cc(Cl)cc(Cl)c2)c1 (racemic) [Example 295, (±)3,5-dichloro-β-[[2-[[[3-[[(ethylamino)(methylimino)methyl]amino]phenyl]carbonyl]amino]acetyl]amino]benzenepropanoic acid, trifluoroacetate salt] |
| 574 nM | 2.18 nM | CCC(CC(=O)O)NC(=O)CNC(=O)c1cccc(NC(=N)N)c1 (stereo not drawn) [Example 264, 3-[[2-[[[3-[(aminoiminomethyl)amino]phenyl]carbonyl]amino]acetyl]amino]pentanoic acid, trifluoroacetate salt] |
| 258 nM | 1.58 nM | N=C(N)Nc1cccc(C(=O)NCC(=O)NC(CC(=O)O)c2cccc(Cl)c2)c1 (racemic) [Example 183, (±)β-[[2-[[[3-[(aminoiminomethyl)amino]phenyl]carbonyl]amino]acetyl]amino]-3-chlorobenzenepropanoic acid, trifluoroacetate salt] |
